Experimental data published in paper PMC6266789 (Viruses, 2018).
Several values for one entry are separate records, joined by “and”; a condition that tells them apart may be missing. Identical values can stand only once. Like-named read-outs stand apart in the source and are kept apart here.

Key:
[1] = test system: rec A(H1N1)pdm09; details: mouse, in vivo
[2] = test system: pH1N1 influenza virus recovered from lungs of IS mice; assay: microbe, parasite or virus in culture; assay type: cell-based
[3] = test system: rec A(H1N1)pdm09; design: species or system C57BL/6 mice; details: mouse, in vivo
[4] = test system: rec A(H1N1)pdm09; design: species or system C57BL/6 mice; details: mouse, in vivo; remark: listed apart in the source
[5] = test system: NA of pH1N1 influenza virus recovered from lungs of IS mice; assay type: biochemical, influenza A(H1N1)pdm09; details: read-out: NAI Assay (Oseltamivir) Mean IC50
[6] = test system: rec A(H1N1)pdm09; design: species or system C57BL/6 mice; details: mouse, in vivo; remark: listed apart in the source
[7] = test system: influenza; design: method as in earlier work; details: infected IC young adults; cited from earlier work

Compound | development of antibodies (microneutralization) [1] | IC50 ([2]; read-out: PRA Assay (Favipiravir) IC50; virus from IS mice treated with oseltamivir 20 mg/kg + favipiravir 20 mg/kg BID, day 15; individual mice; Table 1) [µM] | IC50 ([2]; unidentified influenza virus, in Mus musculus, 288 h, virus from not treated IS mice, day 12; individual mice; Table 1 (exp 2); read-out: PRA Assay (Favipiravir) IC50) [µM] | IC50 ([2]; unidentified influenza virus, in Mus musculus, 360 h, virus from not treated IS mice, day 15; individual mice; Table 2 (exp 3); read-out: PRA Assay (Favipiravir) IC50) [µM] | IC50 ([2]; virus from IS mice treated with favipiravir 20 mg/kg BID, day 15; individual mice; Table 1; read-out: PRA Assay (Favipiravir) IC50) | IC50 ([2]; virus from IS mice treated with favipiravir 50 mg/kg BID, day 15; individual mice; Table 2; read-out: PRA Assay (Favipiravir) IC50) [µM] | IC50 ([2]; virus from IS mice treated with oseltamivir 20 mg/kg + favipiravir 20 mg/kg BID, day 15; individual mice; Table 1; read-out: PRA Assay (Favipiravir) IC50) [µM] | IC50 ([2]; virus from IS mice treated with oseltamivir 20 mg/kg + favipiravir 50 mg/kg BID, day 15; individual mice; Table 2; read-out: PRA Assay (Favipiravir) IC50) | IC50 ([2]; virus from not treated IS mice, day 12; individual mice; Table 1 (exp 2); read-out: PRA Assay (Favipiravir) IC50) | IC50 ([2]; virus from not treated IS mice, day 15; individual mice; Table 2 (exp 3); read-out: PRA Assay (Favipiravir) IC50) [µM] | favipiravir susceptibility phenotype by PRA ([2]; viruses recovered on day 15 p.i., exp 3) | MDD (mean days of death) [3] | body weight losses over a 21-day period [3] | decrease of mortality compared to the non-treated group [3] [%] | survival rate [3] [%] | MDD (mean days of death) ([3]; 20 mg/kg) | LVTs vs non-treated and oseltamivir-treated mice [4] | IC50 [5] | levels of IL-6, TNF-α and IFN-γ after treatment [6] | nasal wash levels of IL-6, TNF-α and IFN-γ [7]
O=P1(N(CCCl)CCCl)NCCCO1 (stereo not drawn) [CP, cyclophosphamide] | none of them developed antibodies | – | – | – | – | – | – | – | – | – | – | – | – | – | – | – | – | – | – | –
NC(=O)c1nc(F)cnc1O [Favipiravir, 6-fluoro-3-hydroxy-2-pyrazinecarboxamide] | – | 14 | 13.8 | 11.5 | 10.6 µM and 13 µM | 12.4 | 13 | 11.6 µM and 10.4 µM and 9.5 µM | 10.5 µM and 9.5 µM and 9.9 µM | 8.5 | did not show a resistant phenotype | 18 | reduced | 50 | 50 | 13 and 16.6 | statistically lower | – | – | –
CCOC(=O)C1=C[C@@H](OC(CC)CC)[C@H](NC(C)=O)[C@@H](N)C1 [Oseltamivir, oseltamivir] | – | – | – | – | – | – | – | – | – | – | – | 14.7 | reduced | – | 50 | 13 and 16.6 | – | 0.0006 µM and 0.0008 µM | not reduced | reduced
